Columns and labels:
[1] = tested on: Human Foreskin Fibroblasts (HFF); settings: 24 hours following the plate scratching
Protocol: (§1) For the treatments, the saturated solutions were diluted 1:10, 1:100, and 1:500 in the growth medium in a supernatant.
HFF cells were thawed and passaged at least once prior to assay performance.

[2] = tested on: HFF cell line; test: Proliferation assay (Stage II), Alamar Blue viability of HFF cells
Protocol: as §1
HFF cells were thawed and passaged at least once prior to assay performance. Exponentially growing culture was collected, centrifuged, counted and seeded in 96-well tissue culture plate at a density of 5000 cells/well.
The plate was incubated overnight at 37° C., humidified 5% CO2/air., to enable cells adherence to the wells.
The next day, the growth medium was replaced with the test item solutions in 5% and 1% FBS and vehicle control solution to achieve the final concentrations as designated in the following plate plan (final volume of 200 μl)
Plates were incubated for 24 hours at 37° C., humidified 5% CO2/air.
Following 24 hours, the medium was replaced with fresh growth medium containing 10% of Alamar Blue.

[Ag+].[Ag+].[Ag+].[Ag+].[O-2].[O-2].[O-2].[O-2] [TST, tetrasilver tetroxide]
observation of scratched monolayer (proliferation along the scratch) ([1]; diluted 1:100, compared to control group): many proliferation centers along the scratch
observation of scratched monolayer (cytotoxicity) ([1]; saturated solution diluted 1:10): cytotoxic
cell proliferation / cytotoxicity result in words ([2]; HFF cells, 24 hours, summary of Table 1): cytotoxic
Number of cells (normalized) ([2]; percent viability on HFF cell line, 24 hours incubation and 4 hours with Alamar Blue, control = 100): 85

Source: patent US20180028712A1, “SKIN-REGENERATING MATERIAL COMPRISING SYNERGISTIC COMBINATION OF METAL OXIDES” (ARGAMAN TECHNOLOGIES LTD., priority 2015, published 2018)
